Assay results: patent US20030166922A1, “Novel cephalosporin compounds and process for preparing the same” (priority 2000, published 2003)
Values after ≈ are worked out from the molar mass of the structure shown.

How the values were obtained:
Assay in all cases: Minimum Inhibitory Concentration (MIC), agar dilution, standard strains
E. faecalis L239 = type: cell-based; conditions: Table 1, Mueller-Hinton agar, 37° C., 20 hours; for MIC: Enterococcus faecalis, L239, read-out: Minimum Inhibitory Concentration (MIC), E. faecalis L239
Method: (§1) Minimum Inhibitory Concentration (MIC)
(§2) The effectiveness of the compound according to the present invention was determined by obtaining Minimum Inhibitory Concentration (MIC) of the compounds prepared by the above Examples (I-1 to I-33) and vancomycin, which is the known compound having a potent activity against gram-positive strains, as the control drug against the standard strains. Specifically, Minimum Inhibitory Concentration was obtained by diluting the test material with a double dilution method, dispersing them in Mueller-Hinton agar medium, inoculating each of the test strain having 10^7 cfu (colny forming unit) in an amount of 2:1 to the medium and then incubating them at 37° C. for 20 hours.

S. epidermidis R005 = type: cell-based; conditions: Table 1, Mueller-Hinton agar, 37° C., 20 hours; for MIC: Staphylococcus epidermidis, R005, read-out: Minimum Inhibitory Concentration (MIC), S. epidermidis R005
Method: as §1, §2

[1] = system: Staphylococcus aureus giorgio; type: cell-based; conditions: Table 1, Mueller-Hinton agar, 37° C., 20 hours; for MIC: Staphylococcus aureus, read-out: Minimum Inhibitory Concentration (MIC), Staphylococcus aureus giorgio
Method: as §1, §2

S. aureus 241 = type: cell-based, Staphylococcus aureus; conditions: Table 1, Mueller-Hinton agar, 37° C., 20 hours; for MIC: Staphylococcus aureus, 241, read-out: Minimum Inhibitory Concentration (MIC), S. aureus 241
Method: as §1, §2

S. aureus 77 = type: cell-based, Staphylococcus aureus; conditions: Table 1, Mueller-Hinton agar, 37° C., 20 hours; for MIC: Staphylococcus aureus, 77, read-out: Minimum Inhibitory Concentration (MIC), S. aureus 77
Method: as §1, §2

Row | Compound | MIC (E. faecalis L239) [µg/mL] | MIC (S. epidermidis R005) [µg/mL] | MIC [1] [µg/mL] | MIC (S. aureus 241) [µg/mL] | MIC (S. aureus 77) [µg/mL] | Minimum Inhibitory Concentration (MIC), E. faecalis L239 (E. faecalis L239) | Minimum Inhibitory Concentration (MIC), S. epidermidis R005 (S. epidermidis R005) | Minimum Inhibitory Concentration (MIC), Staphylococcus aureus giorgio [1] | Minimum Inhibitory Concentration (MIC), S. aureus 241 (S. aureus 241) | Minimum Inhibitory Concentration (MIC), S. aureus 77 (S. aureus 77)
1 | CSc1nc(C)cc(SCSC2=C(C(=O)O)N3C(=O)[C@@H](NC(=O)CSc4cc(Cl)ccc4Cl)[C@H]3SC2)n1 [Example I-22, (6R,7R)-7-({2-[(2,5-dichlorophenyl)sulfanyl]acetyl}amino)-3-[({[6-methyl-2-(methylsulfanyl)-4-pyrimidinyl]sulfanyl}methyl)sulfanyl]-8-oxo-5-thia-1-azabicyclo[4.2. 0]oct-2-ene-2-carboxylic acid] | 0.25 (≈ 0.393 µM) | 0.25 (≈ 0.393 µM) | < 0.008 | 4 (≈ 6.29 µM) | 0.5 (≈ 0.787 µM) | – | – | – | – | –
2 | Nc1nc(SCSC2=C(C(=O)O)N3C(=O)[C@@H](NC(=O)CSc4cc(Cl)ccc4Cl)[C@H]3SC2)nc2c1CCC2 [Example I-9, (6R,7R)-3-({[(4-amino-6,7-dihydro-5H-cyclopenta[d]pyrimidin-2-yl)sulfany-1]methyl}sulfanyl)-7-({2-[(2,5-dichlorophenyl)sulfanyl]acetyl}amino)-8-oxo-5-thia-1-aza-bicyclo[4.2.0]oct-2-ene-2-carboxylic acid] | – | – | – | – | – | 0.25 :g/ml | 0.25 :g/ml | <0.008 :g/ml | 4 :g/ml | 0.25 :g/ml
3 | Nc1cc[n+](N)c(SCSC2=C(C(=O)O)N3C(=O)[C@@H](NC(=O)CSc4cc(Cl)ccc4Cl)[C@H]3SC2)n1 [Example I-7, 1,4-diamino-2-[({[(6R,7R)-2-carboxy-7-({2-[(2,5-dichlorophenyl)sulfanyl]ac-etyl}amino)-8-oxo-5-thia-1-azabicyclo[4.2.0]oct-2-en-3-yl)sulfanyl}methyl)sulfanyl]pyri-midin-1-ium] | – | – | – | – | – | 0.13 :g/ml | 0.063 :g/ml | <0.008 :g/ml | 2 :g/ml | 0.13 :g/ml
4 | Nc1ncnc(SCSC2=C(C(=O)O)N3C(=O)[C@@H](NC(=O)CSc4cc(Cl)ccc4Cl)[C@H]3SC2)c1N [Example I-17, (6R,7R)-3-({[(5,6-diamino-4-pyrimidinyl)sulfanyl]methyl}sulfanyl)-7-({2-[(2,5-dichlorophenyl)sulfanyl]acetyl}amino)-8-oxo-5-thia-1-azabicyclo[4.2.0]oct-2-ene-2-carboxylic acid] | 0.5 (≈ 0.826 µM) | 0.25 (≈ 0.413 µM) | 0.016 (≈ 0.0264 µM) | 2 (≈ 3.3 µM) | 0.13 (≈ 0.215 µM) | – | – | – | – | –
5 | CNc1[n+](C)c(N)nc(SCSC2=C(C(=O)O)N3C(=O)[C@@H](NC(=O)CSc4cc(Cl)ccc4Cl)[C@H]3SC2)[n+]1N [Example I-19, (6R,7R)-1,4-diamino-6-[({[2-carboxy-7-({2-[(2,5-dichlorophenyl)sulfany-1]acetyl}amino)-8-oxo-5-thia-1-azabicyclo[4.2.0]oct-2-en-3-yl]sulfanyl}methyl)sulfanyl]-3-methyl-2-(methylamino)-1,3,5-triazine-1,3-diium] | – | – | – | – | – | 4 :g/ml | 2 :g/ml | 0.063 :g/ml | 32 :g/ml | 4 :g/ml
6 | Cc1c(N)nc(SCSC2=C(C(=O)O)N3C(=O)[C@@H](NC(=O)CSc4cc(Cl)ccc4Cl)[C@H]3SC2)nc1N [Example I-18, (6R,7R)-3-({[(4,6-diamino-5-methyl-2-pyrimidinyl)sulfanyl]methyl}sulfan-yl)-7-({2-[(2,5-dichlorophenyl)sulfanyl]acetyl}amino)-8-oxo-5-thia-1-azabicyclo[4.2.0]oc-t-2-ene-2-carb oxylic acid] | – | – | – | – | – | 0.5 :g/ml | 0.25 :g/ml | 0.016 :g/ml | 4 :g/ml | 0.25 :g/ml
7 | Cn1c(N)n[n+]2c(SCSC3=C(C(=O)O)N4C(=O)[C@@H](NC(=O)CSc5cc(Cl)ccc5Cl)[C@H]4SC3)nc(N)cc12 [Example I-14, (6R,7R)-2,7-diamino-5-[({[2-carboxy-7-({2-[(2,5-dichlorophenyl)sulfany-1]acetyl}amino)-8-oxo-5-thia-1-azabicyclo[4.2.0]oct-2-en-3-yl]sulfanyl}methyl)sulfanyl]-1-methyl-1H,2H, 3H-[1,2,4]triazolo[1,5-c]pyrimidin-4-ium] | – | – | – | – | – | 0.13 :g/ml | 0.13 :g/ml | <0.008 :g/ml | 2 :g/ml | 0.25 :g/ml
8 | Nc1cc(N)nc(SCSC2=C(C(=O)O)N3C(=O)[C@@H](NC(=O)CSc4cc(Cl)ccc4Cl)[C@H]3SC2)n1 [Example I-16, (6R,7R)-3-({[(4,6-diamino-2-pyrimidinyl)sulfanyl]methyl}sulfanyl)-7-({2-[(2,5-dichlorophenyl)sulfanyl]acetyl}amino)-8-oxo-5-thia-1-azabicyclo[4.2.0]oct-2-ene-2-carboxylic acid] | 0.5 (≈ 0.826 µM) | 0.063 (≈ 0.104 µM) | < 0.008 | 2 (≈ 3.3 µM) | 0.25 (≈ 0.413 µM) | – | – | – | – | –
9 | Nc1cc(SCSC2=C(C(=O)O)N3C(=O)[C@@H](NC(=O)CSc4cc(Cl)ccc4Cl)[C@H]3SC2)nc(N)n1 [Example I-1, (6R,7R)-3-({[(2,6-diamino-4-pyrimidinyl)sulfanyl]methyl}sulfanyl)-7-({2-[(2,5-dichlorophenyl)sulfanyl]acetyl}amino)-8-oxo-5-thia-1-azabicyclo[4.2.0]oct-2-ene-2-carboxylic acid] | 0.25 (≈ 0.413 µM) | 0.063 (≈ 0.104 µM) | < 0.008 | 1 (≈ 1.65 µM) | 0.063 (≈ 0.104 µM) | – | – | – | – | –
10 | CCSc1nc(C)cc(SCSC2=C(C(=O)O)N3C(=O)[C@@H](NC(=O)CSc4cc(Cl)ccc4Cl)[C@H]3SC2)n1 [Example I-12, (6R,7R)-7-({2-[(2,5-dichlorophenyl)sulfanyl]acetyl}amino)-3-[({[2-(ethylsul-fanyl)-6-methyl-4-pyrimidinyl]sulfanyl}methyl)sulfanyl]-8-oxo-5-thia-1-azabicyclo[4.2. 0]oct-2-ene-2-carboxylic acid] | – | – | – | – | – | 0.25 :g/ml | 0.5 :g/ml | 0.031 :g/ml | 4 :g/ml | 0.5 :g/ml
11 | Nc1nc(O)cc(SCSC2=C(C(=O)O)N3C(=O)[C@@H](NC(=O)CSc4cc(Cl)ccc4Cl)[C@H]3SC2)n1 [Example I-2, (6R,7R)-3-({[(2-amino-6-hydroxy-4-pyrimidinyl)sulfanyl]methyl}sulfanyl)-7-({2-[(2,5-dic hlorophenyl)sulfanyl]acetyl}amino)-8-oxo-5-thia-1-azabicyclo[4.2.0]oct-2-ene-2-carboxylic acid] | 0.25 (≈ 0.412 µM) | 0.063 (≈ 0.104 µM) | < 0.008 | 1 (≈ 1.65 µM) | 0.13 (≈ 0.214 µM) | – | – | – | – | –
12 | CN(CC(=O)N[C@@H]1C(=O)N2C(C(=O)O)=C(SCSc3cc(N)nc(N)n3)CS[C@H]12)c1cc(Cl)ccc1Cl [Example I-6, (6R,7R)-3-({[(2,6-diamino-4-pyrimidinyl)sulfanyl]methyl}sulfanyl)-7-({2-[2,5-dichloro(methyl)anilino]acetyl}amino)-8-oxo-5-thia-1-azabicyclo[4.2.0]oct-2-ene-2-carboxylic acid] | – | – | – | – | – | 4 :g/ml | 0.5 :g/ml | 0.031 :g/ml | 8 :g/ml | 0.5 :g/ml
13 | Nc1nc(SCSC2=C(C(=O)O)N3C(=O)[C@@H](NC(=O)CSc4cc(Cl)ccc4Cl)[C@H]3SC2)nc2cn[nH]c12 [Example I-13, (6R,7R)-3-({[(7-amino-1H-pyrazolo [4,3-d]pyrimidin-5-yl)sulfanyl]methy-1}sulfanyl)-7-({2-[(2,5-dichlorophenyl)sulfanyl]acetyl}amino)-8-oxo-5-thia-1-azabicyc-lo[4.2.0]oct-2-ene-2-carboxylic acid] | – | – | – | – | – | 0.25 :g/ml | 0.13 :g/ml | <0.008 :g/ml | 2 :g/ml | 0.13 :g/ml
14 | (6R,7R)-2,4-diamino-6-[({[2-carboxy-7-({2-[(2,5-dichlorophenyl)sulfany-1]acetyl}amino)-8-oxo-5-thia-1-azabicyclo[4.2.0]oct-2-en-3-yl]sulfanyl}methyl)sulfanyl]-1-methylpyrimidi n-1-ium [Example I-15] | – | – | – | – | – | 0.25 :g/ml | 0.13 :g/ml | <0.008 :g/ml | 1 :g/ml | 0.13 :g/ml
